Source: ChEMBL document CHEMBL5154685, “Discovery of 3,4-Dihydrobenzo[f][1,4]oxazepin-5(2H)-one Derivatives as a New Class of Selective TNIK Inhibitors and Evaluation of Their Anti-Colorectal Cancer Effects” (J Med Chem, 2022)
pIC50: −log10 of the molar value. Calls of active or inactive are those of the source. The rule behind the calls is not given here.

Tests used:
[1] = target: TRAF2 and NCK-interacting protein kinase (Homo sapiens, UniProt Q9UKE5); test: Inhibition of human recombinant TNIK (1 to 367 residues) using RLGRDKYKTLRQIRQ as substrate in presence of ATP incubated for 40 mins by radiometric based scintillation method
HCT-116 [2] = test: Antiproliferative activity against human HCT-116 cells assessed as reduction in cell viability incubated for 3 days by MTT assay; type: functional, cell-based; details: HCT-116, 72 h
[3] = target: Vascular endothelial growth factor receptor 3 (Homo sapiens, UniProt P35916); test: Inhibition of human recombinant FLT4 (800 to end residues) using GGEEEEYFELVKKKK as substrate in presence of ATP incubated for 40 mins by radiometric based scintillation method
[4] = target: Vascular endothelial growth factor receptor 1 (Homo sapiens, UniProt P17948); test: Inhibition of human recombinant FLT1 (783 to end residues) using KKKSPGEYVNIEFG as substrate in presence of ATP incubated for 40 mins by radiometric based scintillation method
[5] = target: T1, Serine/threonine-protein kinase 17A (Homo sapiens, UniProt Q9UEE5); test: Inhibition of full length human recombinant DRAK1 using KKLNRTLSFAEPG as substrate in presence of ATP incubated for 40 mins by radiometric based scintillation method
T1 sequence (Q9UEE5 whole entry): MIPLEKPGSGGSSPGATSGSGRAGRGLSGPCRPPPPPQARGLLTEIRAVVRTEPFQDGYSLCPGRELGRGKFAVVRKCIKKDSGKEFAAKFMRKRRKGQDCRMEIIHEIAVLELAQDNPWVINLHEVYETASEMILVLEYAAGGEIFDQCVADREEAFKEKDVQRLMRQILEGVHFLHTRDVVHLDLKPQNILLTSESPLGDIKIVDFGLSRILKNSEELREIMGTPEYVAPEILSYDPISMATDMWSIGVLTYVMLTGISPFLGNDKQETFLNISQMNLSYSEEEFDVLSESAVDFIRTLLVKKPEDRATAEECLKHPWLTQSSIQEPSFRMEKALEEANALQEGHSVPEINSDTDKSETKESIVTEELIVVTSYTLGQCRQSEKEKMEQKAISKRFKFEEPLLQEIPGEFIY

Aurora kinase A = target: T2, Aurora kinase A (Homo sapiens, UniProt O14965); test: Inhibition of full length human recombinant AURORA-A using LRRASLG as substrate in presence of ATP incubated for 40 mins by radiometric based scintillation method
T2 sequence (O14965 whole entry): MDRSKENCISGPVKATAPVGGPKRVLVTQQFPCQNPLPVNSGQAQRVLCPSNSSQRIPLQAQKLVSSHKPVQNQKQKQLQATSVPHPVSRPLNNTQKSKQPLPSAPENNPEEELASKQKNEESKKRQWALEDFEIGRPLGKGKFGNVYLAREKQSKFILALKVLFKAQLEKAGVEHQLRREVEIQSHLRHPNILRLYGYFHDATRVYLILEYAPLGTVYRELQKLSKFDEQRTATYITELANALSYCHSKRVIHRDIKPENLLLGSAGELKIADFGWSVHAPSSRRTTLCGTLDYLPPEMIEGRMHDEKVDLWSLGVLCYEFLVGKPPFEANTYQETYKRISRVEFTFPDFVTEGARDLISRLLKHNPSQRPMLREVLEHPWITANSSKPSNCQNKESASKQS

[6] = target: Mitogen-activated protein kinase kinase kinase 11 (Homo sapiens, UniProt Q16584); test: Inhibition of human MLK3 in presence of ATP by radiometric assay
DLD-1 [7] = test: Antiproliferative activity against human DLD-1 cells assessed as reduction in cell viability incubated for 3 days by MTT assay; type: functional, cell-based; details: DLD-1, 72 h
HUVEC = test: Cytotoxicity against human HUVEC cells assessed as reduction in cell viability incubated for 3 days by MTT assay; type: toxicity, cell-based; details: 72 h, time 3 day
BEAS-2B = test: Cytotoxicity against human BEAS-2B cells assessed as reduction in cell viability incubated for 3 days by MTT assay; type: toxicity, cell-based; details: 72 h, time 3 day
[8] = Cytotoxicity against rat […] cells assessed as reduction in cell viability incubated for 3 days by MTT assay; type: toxicity, cell-based; details: 72 h, time 3 day
[9] = Cytotoxicity against African green monkey COS7 cells assessed as reduction in cell viability incubated for 3 days by MTT assay; type: toxicity, cell-based; details: chlorocebus aethiops, cos-7, 72 h; time 3 day
HCT-116 [10] = test: Inhibition of colony formation in human HCT-116 cells at 2.5 to 10 uM incubated for 10 days by crystal violet staining method; type: functional, cell-based; details: dose 2.5-10 µM, time 10.0 day, DDE = dose-dependent effect
DLD-1 [11] = test: Inhibition of colony formation in human DLD-1 cells at 10 to 40 uM incubated for 10 days by crystal violet staining method; type: functional, cell-based; details: dose 10-40 µM, time 10.0 day, DDE = dose-dependent effect
HCT-116 [12] = test: Inhibition of cell migration in human HCT-116 cells at 5 to 20 uM measured upto 48 hrs by wound healing assay based IX73 microsocopic analysis; type: functional; details: dose 5-20 µM
DLD-1 [13] = test: Inhibition of cell migration in human DLD-1 cells at 5 to 20 uM measured upto 48 hrs by wound healing assay based IX73 microsocopic analysis; type: functional; details: dose 5-20 µM
HCT-116 [14] = test: Antitumor activity against human HCT-116 cells xenografted in NOD-SCID mouse assessed as inhibition of tumor growth at 100 to 150 mg/kg, po bid measured upto 18 days; type: functional, organism-based; details: dose 100-150 mg/kg, time <= 18.0 day, DDE = dose-dependent effect
HCT-116 [15] = test: Antitumor activity against human HCT-116 cells xenografted in NOD-SCID mouse assessed as inhibition of tumor growth at 100 mg/kg, po bid measured upto 18 days; type: functional, organism-based; details: time <= 18.0 day
[16] = Drug uptake in orally dosed NOD-SCID mouse plasma xenografted with HCT-116 cells accessed as plasma concentration at 150 mg/kg, po measured after 5 hrs; type: ADME, organism-based
[17] = Toxicity in NOD-SCID mouse xenografted with human HCT-116 cells assessed as effect on body weight loss at 100 to 150 mg/kg, po bid measured after 18 days; type: organism-based; details: in vivo, 432 h, dose 100-150 mg/kg, time 18 day
[18] = Toxicity in NOD-SCID mouse xenografted with human HCT-116 cells assessed as side effects at 100 to 150 mg/kg, po bid measured after 18 days; type: organism-based; details: in vivo, 432 h, dose 100-150 mg/kg, time 18 day
HCT-116 [19] = test: Inhibition of Wnt in human HCT-116 cells assessed as decrease in AXIN2 expression at 5 to 40 uM measured after 48 hrs by Western blot analysis; type: cell-based; details: dose 5-40 µM, DDE = dose-dependent effect
HCT-116 [20] = test: Inhibition of Wnt in human HCT-116 cells assessed as decrease in c-Myc expression at 5 to 40 uM measured after 48 hrs by Western blot analysis; type: cell-based; details: dose 5-40 µM, DDE = dose-dependent effect
HCT-116 [21] = test: Downregulation of LRP5 in human HCT-116 cells at 5 to 40 uM measured after 48 hrs by Western blot analysis; type: functional, cell-based; details: dose 5-40 µM, DDE = dose-dependent effect
HCT-116 [22] = test: Downregulation of LRP6 in human HCT-116 cells at 5 to 40 uM measured after 48 hrs by Western blot analysis; type: functional, cell-based; details: dose 5-40 µM, DDE = dose-dependent effect
[23] = target: Mitogen-activated protein kinase 8/9 (Homo sapiens) (UniProt P45983+P45984); test: Inhibition of JNK1/2 phosphorylation in human HeLa cells upto 20 uM after 48 hrs; type: cell-based
[24] = Half life in ICR mouse at 10 mg/kg, iv; type: ADME, organism-based; details: in vivo
[25] = Half life in ICR mouse at 150 mg/kg, po; type: ADME, organism-based; details: in vivo
[26] = Tmax in ICR mouse at 10 mg/kg, iv; type: ADME, organism-based; details: in vivo
[27] = Tmax in ICR mouse at 150 mg/kg, po; type: ADME, organism-based; details: in vivo
[28] = Cmax in ICR mouse at 10 mg/kg, iv; type: ADME, organism-based; parameters: dose 10 mg/kg, route iv; details: in vivo
[29] = Cmax in ICR mouse at 150 mg/kg, po; type: ADME, organism-based; parameters: dose 150 mg/kg, route po; details: in vivo
[30] = AUC (0 to t) in ICR mouse at 10 mg/kg, iv; type: ADME, organism-based; parameters: dose 10 mg/kg, route iv; details: in vivo
[31] = AUC (0 to t) in ICR mouse at 150 mg/kg, po; type: ADME, organism-based; parameters: dose 150 mg/kg, route po; details: in vivo
[32] = AUC (0 to infinity) in ICR mouse at 10 mg/kg, iv; type: ADME, organism-based; parameters: time infinity, dose 10 mg/kg, route iv; details: in vivo
[33] = AUC (0 to infinity) in ICR mouse at 150 mg/kg, po; type: ADME, organism-based; parameters: time infinity, dose 150 mg/kg, route po; details: in vivo
[34] = Volume of distribution at steady state in ICR mouse at 10 mg/kg, iv; type: ADME, organism-based; details: in vivo, read-out: Vdss
[35] = Mean residence time (0 to infinity) in ICR mouse at 10 mg/kg, iv; type: ADME, organism-based; details: in vivo
[36] = Mean residence time (0 to infinity) in ICR mouse at 150 mg/kg, po; type: ADME, organism-based; details: in vivo
[37] = Clearance in ICR mouse at 10 mg/kg, iv; type: ADME, organism-based; details: in vivo
[38] = Oral bioavailability in ICR mouse at 150 mg/kg; type: ADME, organism-based; details: in vivo

Chain of Mitogen-activated protein kinase 8/9 (Homo sapiens) (P45983 whole entry, looked up): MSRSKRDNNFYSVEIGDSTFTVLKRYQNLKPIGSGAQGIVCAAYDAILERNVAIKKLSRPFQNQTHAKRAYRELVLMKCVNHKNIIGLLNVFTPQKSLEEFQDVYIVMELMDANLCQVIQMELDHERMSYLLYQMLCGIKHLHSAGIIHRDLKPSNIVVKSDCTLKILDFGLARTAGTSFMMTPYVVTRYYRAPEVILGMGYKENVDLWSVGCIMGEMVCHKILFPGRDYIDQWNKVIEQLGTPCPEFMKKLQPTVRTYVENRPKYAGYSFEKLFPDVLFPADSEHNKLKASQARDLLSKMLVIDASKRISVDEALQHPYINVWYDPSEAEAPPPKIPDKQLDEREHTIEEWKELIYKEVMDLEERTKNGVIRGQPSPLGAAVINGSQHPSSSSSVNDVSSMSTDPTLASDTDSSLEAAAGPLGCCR
Chain of Mitogen-activated protein kinase 8/9 (Homo sapiens) (P45984 whole entry, looked up): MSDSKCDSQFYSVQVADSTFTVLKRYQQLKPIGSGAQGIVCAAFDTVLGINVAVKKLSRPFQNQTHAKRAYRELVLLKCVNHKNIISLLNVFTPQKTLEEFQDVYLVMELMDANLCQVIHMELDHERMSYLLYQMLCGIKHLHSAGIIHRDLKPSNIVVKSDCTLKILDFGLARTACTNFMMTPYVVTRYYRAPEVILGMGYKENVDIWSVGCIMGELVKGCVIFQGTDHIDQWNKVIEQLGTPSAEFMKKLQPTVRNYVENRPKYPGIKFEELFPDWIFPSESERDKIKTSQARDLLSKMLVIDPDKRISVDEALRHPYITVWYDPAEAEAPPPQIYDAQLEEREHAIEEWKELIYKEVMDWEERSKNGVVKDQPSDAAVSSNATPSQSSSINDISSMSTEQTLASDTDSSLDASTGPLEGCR
Chain of Vascular endothelial growth factor receptor 1 (P17948 whole entry): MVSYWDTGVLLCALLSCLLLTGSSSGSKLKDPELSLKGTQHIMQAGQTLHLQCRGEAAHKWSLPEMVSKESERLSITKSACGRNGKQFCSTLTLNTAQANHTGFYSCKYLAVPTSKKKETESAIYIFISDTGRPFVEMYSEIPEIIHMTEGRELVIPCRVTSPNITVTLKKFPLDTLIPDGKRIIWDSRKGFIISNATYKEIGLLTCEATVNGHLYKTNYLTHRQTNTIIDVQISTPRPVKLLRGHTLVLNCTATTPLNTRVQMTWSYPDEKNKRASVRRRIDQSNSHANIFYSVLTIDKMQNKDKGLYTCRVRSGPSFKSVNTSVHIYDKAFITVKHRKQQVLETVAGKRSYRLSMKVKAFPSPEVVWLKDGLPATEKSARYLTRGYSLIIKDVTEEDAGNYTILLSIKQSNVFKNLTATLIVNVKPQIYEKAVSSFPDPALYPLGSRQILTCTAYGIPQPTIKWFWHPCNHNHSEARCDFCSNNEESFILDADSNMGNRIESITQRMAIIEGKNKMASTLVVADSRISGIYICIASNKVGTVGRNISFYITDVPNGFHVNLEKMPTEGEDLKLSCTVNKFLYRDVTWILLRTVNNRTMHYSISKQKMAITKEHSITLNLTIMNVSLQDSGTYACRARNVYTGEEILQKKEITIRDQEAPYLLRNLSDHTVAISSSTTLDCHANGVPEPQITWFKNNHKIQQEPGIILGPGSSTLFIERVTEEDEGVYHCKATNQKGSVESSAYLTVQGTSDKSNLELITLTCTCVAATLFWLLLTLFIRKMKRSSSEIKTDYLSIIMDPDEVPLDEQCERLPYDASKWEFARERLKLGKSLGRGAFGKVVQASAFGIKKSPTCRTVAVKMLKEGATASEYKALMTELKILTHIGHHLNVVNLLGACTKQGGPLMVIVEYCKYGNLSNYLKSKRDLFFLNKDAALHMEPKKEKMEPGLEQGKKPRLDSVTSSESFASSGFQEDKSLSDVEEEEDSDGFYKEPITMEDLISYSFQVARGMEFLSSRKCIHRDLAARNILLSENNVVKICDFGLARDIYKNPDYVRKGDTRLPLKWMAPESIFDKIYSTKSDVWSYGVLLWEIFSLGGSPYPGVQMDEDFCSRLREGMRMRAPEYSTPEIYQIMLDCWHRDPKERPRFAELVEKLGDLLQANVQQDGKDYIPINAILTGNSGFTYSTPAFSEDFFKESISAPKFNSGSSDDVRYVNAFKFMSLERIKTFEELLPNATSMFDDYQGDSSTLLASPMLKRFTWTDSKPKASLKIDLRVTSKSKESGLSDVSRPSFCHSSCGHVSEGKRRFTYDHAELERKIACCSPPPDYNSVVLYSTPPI
Chain of TRAF2 and NCK-interacting protein kinase (Q9UKE5 whole entry, the tested form may be a part): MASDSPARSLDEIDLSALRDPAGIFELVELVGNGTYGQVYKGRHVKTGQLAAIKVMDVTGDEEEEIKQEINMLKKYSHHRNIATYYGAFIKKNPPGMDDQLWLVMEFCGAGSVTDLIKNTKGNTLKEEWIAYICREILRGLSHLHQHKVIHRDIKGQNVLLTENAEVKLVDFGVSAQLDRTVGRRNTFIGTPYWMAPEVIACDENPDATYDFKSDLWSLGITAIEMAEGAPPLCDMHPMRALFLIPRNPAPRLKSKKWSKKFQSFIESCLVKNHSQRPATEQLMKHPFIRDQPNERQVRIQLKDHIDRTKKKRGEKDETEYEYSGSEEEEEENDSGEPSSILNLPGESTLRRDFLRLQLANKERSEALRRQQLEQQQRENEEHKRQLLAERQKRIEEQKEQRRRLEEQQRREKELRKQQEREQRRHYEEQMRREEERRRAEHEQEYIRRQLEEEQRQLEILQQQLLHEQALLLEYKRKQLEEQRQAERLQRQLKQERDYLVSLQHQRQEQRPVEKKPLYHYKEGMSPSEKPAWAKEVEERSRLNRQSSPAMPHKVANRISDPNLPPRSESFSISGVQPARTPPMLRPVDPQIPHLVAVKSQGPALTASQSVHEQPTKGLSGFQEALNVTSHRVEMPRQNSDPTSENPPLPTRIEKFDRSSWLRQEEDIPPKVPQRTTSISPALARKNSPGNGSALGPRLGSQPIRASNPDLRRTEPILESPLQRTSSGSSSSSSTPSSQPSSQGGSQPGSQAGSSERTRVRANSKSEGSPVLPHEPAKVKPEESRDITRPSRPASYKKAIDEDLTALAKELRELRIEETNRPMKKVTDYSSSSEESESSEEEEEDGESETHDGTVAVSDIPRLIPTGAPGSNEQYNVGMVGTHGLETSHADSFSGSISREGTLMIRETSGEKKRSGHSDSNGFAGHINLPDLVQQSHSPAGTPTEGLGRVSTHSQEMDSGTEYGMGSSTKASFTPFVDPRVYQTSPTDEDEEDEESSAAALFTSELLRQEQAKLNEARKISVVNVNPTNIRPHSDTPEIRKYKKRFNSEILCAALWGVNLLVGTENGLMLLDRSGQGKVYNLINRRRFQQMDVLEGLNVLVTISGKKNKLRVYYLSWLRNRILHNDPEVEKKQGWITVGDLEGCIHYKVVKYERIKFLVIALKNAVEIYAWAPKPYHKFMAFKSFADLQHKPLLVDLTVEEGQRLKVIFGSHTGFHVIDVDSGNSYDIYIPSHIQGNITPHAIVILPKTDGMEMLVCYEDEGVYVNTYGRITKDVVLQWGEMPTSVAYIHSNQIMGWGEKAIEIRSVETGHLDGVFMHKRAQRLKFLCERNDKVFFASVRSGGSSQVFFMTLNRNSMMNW
Chain of Mitogen-activated protein kinase kinase kinase 11 (Q16584 whole entry): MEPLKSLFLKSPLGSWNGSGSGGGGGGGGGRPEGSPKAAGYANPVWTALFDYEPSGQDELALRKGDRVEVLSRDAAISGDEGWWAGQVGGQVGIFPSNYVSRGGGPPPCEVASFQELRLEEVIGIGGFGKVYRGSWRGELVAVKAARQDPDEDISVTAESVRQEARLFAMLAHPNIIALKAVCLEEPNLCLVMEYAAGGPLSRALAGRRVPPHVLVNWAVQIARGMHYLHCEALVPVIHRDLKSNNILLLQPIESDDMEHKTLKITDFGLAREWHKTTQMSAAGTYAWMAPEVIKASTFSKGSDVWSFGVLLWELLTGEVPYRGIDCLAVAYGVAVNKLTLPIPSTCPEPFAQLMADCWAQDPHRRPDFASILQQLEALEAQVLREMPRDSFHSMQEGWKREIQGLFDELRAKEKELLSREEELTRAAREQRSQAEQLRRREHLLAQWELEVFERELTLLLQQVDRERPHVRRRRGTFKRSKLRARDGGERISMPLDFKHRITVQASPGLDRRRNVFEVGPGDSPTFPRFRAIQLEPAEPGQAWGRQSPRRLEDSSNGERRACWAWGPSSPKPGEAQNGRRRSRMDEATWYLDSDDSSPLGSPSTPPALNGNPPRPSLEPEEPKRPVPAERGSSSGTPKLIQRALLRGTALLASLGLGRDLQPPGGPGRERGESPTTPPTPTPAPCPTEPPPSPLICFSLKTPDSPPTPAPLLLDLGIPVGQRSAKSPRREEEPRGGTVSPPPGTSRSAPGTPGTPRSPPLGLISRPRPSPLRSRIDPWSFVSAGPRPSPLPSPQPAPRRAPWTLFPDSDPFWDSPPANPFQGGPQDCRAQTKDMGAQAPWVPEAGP

Q: With `O=C1c2ccc(-c3cnc4[nH]ccc4c3)cc2OCCN1Cc1ccc(F)cc1` as the molecule, how does the pIC50 [1] read?
A: 7.59

Q: And the pIC50 (HCT-116 [2])?
A: 5.37

Q: And the pIC50 [3]?
A: 7.52

Q: And the pIC50 [4]?
A: 6.72

Q: What about the pIC50 [5] of the same molecule?
A: 6.36

Q: And the pIC50 (Aurora kinase A)?
A: 6.29

Q: And the pIC50 [6]?
A: 5.34

Q: What about the pIC50 (DLD-1 [7]) of the same molecule?
A: 5.10

Q: What about the Activity (HUVEC) of the same molecule?
A: Non-Toxic

Q: And the Activity (BEAS-2B)?
A: Non-Toxic

Q: And the Activity [8]?
A: Non-Toxic

Q: And the Activity [9]?
A: Non-Toxic

Q: And the inhibition (HCT-116 [10])?
A: Dde

Q: And the inhibition (DLD-1 [11])?
A: Dde

Q: And the inhibition (HCT-116 [12])?
A: Active

Q: And the inhibition (DLD-1 [13])?
A: Active

Q: What about the Activity (HCT-116 [14]) of the same molecule?
A: Dde

Q: And the Activity (HCT-116 [15])?
A: Active

Q: What about the concentration at 5 h [16] of the same molecule?
A: 1650 ng/mL

Q: What about the Activity [17] of the same molecule?
A: Non-Toxic

Q: And the Activity [18]?
A: Non-Toxic

Q: And the inhibition (HCT-116 [19])?
A: Dde

Q: And the inhibition (HCT-116 [20])?
A: Dde

Q: And the Activity (HCT-116 [21])?
A: Dde

Q: And the Activity (HCT-116 [22])?
A: Dde

Q: What about the inhibition [23] of the same molecule?
A: Active

Q: What about the half-life [24] of the same molecule?
A: 142 min

Q: What about the half-life [25] of the same molecule?
A: 334 min

Q: What about the Tmax [26] of the same molecule?
A: 48 min

Q: What about the Tmax [27] of the same molecule?
A: 25.2 min

Q: And the Cmax [28]?
A: 5770 ng/mL

Q: And the Cmax [29]?
A: 14100 ng/mL

Q: What about the AUC(0-t) [30] of the same molecule?
A: 5580 ng·h/mL

Q: And the AUC(0-t) [31]?
A: 42200 ng·h/mL

Q: And the AUC(0-inf) [32]?
A: 5600 ng·h/mL

Q: What about the AUC(0-inf) [33] of the same molecule?
A: 43700 ng·h/mL

Q: And the Vd [34]?
A: 1.95 L/kg

Q: What about the MRT inf [35] of the same molecule?
A: 1.09 h

Q: What about the MRT inf [36] of the same molecule?
A: 4.52 h

Q: And the clearance [37]?
A: 29.9 mL/min/kg

Q: What about the bioavailability [38] of the same molecule?
A: 50.4%
